Tests used:
[1] = target: human serum albumin (HSA) (Homo sapiens, UniProt P02768); experiment: Evaluation of binding to albumin (HSA solution, PBS control); conditions: left to stand in HSA solution (45 mg/mL)
Procedure: Thereafter, the reaction liquids were added to a spin column (Sephadex G-100; manufactured by Cytiva), and centrifuged at 1500×g at 4° C. for 2 minutes. After separation, the radioactivity for each of the column and the eluate was measured with a gamma counter.
When a compound to be evaluated binds to albumin to form a composite, the compound passes through the column because of the increased molecular size.
As in Examples described above, PBS and human albumin were used to evaluate binding to albumin.
Thereafter, the reaction liquid was added to a spin column (Sephadex G-50; manufactured by Cytiva), and centrifuged at 1500×g at 4° C. for 2 minutes. After separation, the radioactivity of the column and the eluate was measured with a gamma counter.

[2] = system: LNCaP tumor-transplanted mouse; experiment: Internal radioactivity distribution using LNCaP tumor-transplanted mouse; type: in vivo
Procedure: (§1) The animal test was performed in compliance with the guidelines of Kyoto University Animal Experiment Committee. Male CB17/IcrJcl-Prkdc^scid mice were purchased from CLEA Japan, Inc. The animals were kept under 12 h/12 h, day/night cycle conditions and fed ad libitum with food and water. LNCaP cells (1.0×10^7 cells/mouse) or PC-3 cells (1.0×10^7 cells/mouse) were suspended in a mixture of PBS and Matrigel manufactured by Corning Life Sciences (1:1, 150 μL) and the suspension was subcutaneously transplanted to the right shoulder of mice under isoflurane anesthesia. Thereafter, the mice were kept for 40 to 60 days.
LNCaP or PC-3 tumor-implanted mice were administered saline solutions (185 kBq, 100 μL) of [^111In]In-PSMA-DA1 or [^111In]In-PSMA-DB from the tail vein (n=3 each). Mice were euthanized 1, 4, 24, 48, 96, and 192 hours after administration. Thereafter, blood and each organ were recovered, and the mass and radioactivity of the organs were measured.
The percentage (% ID) of the radioactivity amount to the administered radioactivity amount (injected dose) is shown as the value (% ID/g) divided by the blood mass or the organ mass (g).
LNCaP tumor-implanted mice prepared by the same method as in Example 1-1 were administered a saline solution (241 kBq/100 μL) of [^111In]In-PtDA from the tail vein (n=3). Mice were euthanized 1, 24, and 48 hours after administration. Thereafter, blood and each organ were recovered, and the mass and radioactivity of the organs were measured.
LNCaP tumor-implanted mice prepared by the same method as in Example 1-1 were administered a saline solution (259 kBq/100 μL each) of each of the radiolabeled compounds in Examples 3-1 to 3-3 or Comparative Examples 2-1 to 2-2 from the tail vein (n=2 to 3). Mice were euthanized 1, 4, 24, 48, 96, and 192 hours after administration. Thereafter, blood and each organ were recovered, and the mass and radioactivity of the organs were measured.
as §1, with “LNCaP cells (4.3×10^6 cells/mouse) or” for “LNCaP cells (1.0×10^7 cells/mouse) or”, “PC-3 cells (3.3×10^6 cells/mouse) were” for “PC-3 cells (1.0×10^7 cells/mouse) were”, “shoulder of CB17/IcrJcl-Prkdc^scid mice under” for “shoulder of mice under”
Mice were euthanized 1, 4, 24, 48, 96, and 192 hours after administration. Thereafter, blood and each organ were recovered, and the mass and radioactivity of the organs were measured.
The results are shown in Table 12 (Mean value±standard deviation, n=3).

human serum albumin (HSA), sequence (P02768 25-609): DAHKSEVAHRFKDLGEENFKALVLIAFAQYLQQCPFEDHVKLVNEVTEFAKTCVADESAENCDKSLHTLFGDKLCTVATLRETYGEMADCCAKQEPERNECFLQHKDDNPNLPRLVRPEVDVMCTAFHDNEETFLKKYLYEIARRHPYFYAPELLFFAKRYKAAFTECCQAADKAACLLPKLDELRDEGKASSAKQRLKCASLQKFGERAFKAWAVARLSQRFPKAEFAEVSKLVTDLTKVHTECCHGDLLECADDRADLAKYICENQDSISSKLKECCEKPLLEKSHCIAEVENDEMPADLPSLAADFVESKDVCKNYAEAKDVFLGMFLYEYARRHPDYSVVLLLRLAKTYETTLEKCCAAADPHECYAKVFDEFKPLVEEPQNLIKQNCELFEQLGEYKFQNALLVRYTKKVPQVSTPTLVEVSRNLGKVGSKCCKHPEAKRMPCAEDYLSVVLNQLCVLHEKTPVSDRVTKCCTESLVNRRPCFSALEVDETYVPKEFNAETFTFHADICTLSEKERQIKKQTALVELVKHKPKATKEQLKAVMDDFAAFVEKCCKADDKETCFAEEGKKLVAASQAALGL

radioactivity in the eluate (in words) [1]: significantly higher
Blood ([2]; 1 h after administration): 13.6 ± 0.68 % ID/g
Brain ([2]; 1 h after administration): 0.18 ± 0.00 % ID/g
Heart ([2]; 1 h after administration): 3.74 ± 0.04 % ID/g
Intestine ([2]; 1 h after administration): 1.22 ± 0.30 % ID/g
Kidney ([2]; 1 h after administration): 90.1 ± 5.81 % ID/g
LNCaP Tumor ([2]; 1 h after administration): 7.44 ± 0.18 % ID/g
Liver ([2]; 1 h after administration): 2.23 ± 0.34 % ID/g
Lung ([2]; 1 h after administration): 8.99 ± 1.68 % ID/g
Muscle ([2]; 1 h after administration): 1.09 ± 0.25 % ID/g
Pancreas ([2]; 1 h after administration): 1.61 ± 0.42 % ID/g
Spleen ([2]; 1 h after administration): 16.9 ± 2.52 % ID/g
Stomach (% ID) ([2]; 1 h after administration): 0.23 ± 0.06 % ID
Blood ([2]; 4 h after administration): 5.73 ± 0.26 % ID/g
Brain ([2]; 4 h after administration): 0.12 ± 0.01 % ID/g
Heart ([2]; 4 h after administration): 1.78 ± 0.15 % ID/g
Intestine ([2]; 4 h after administration): 1.05 ± 0.29 % ID/g
Kidney ([2]; 4 h after administration): 126 ± 17.6 % ID/g
LNCaP Tumor ([2]; 4 h after administration): 8.57 ± 0.61 % ID/g
Liver ([2]; 4 h after administration): 1.29 ± 0.02 % ID/g
Lung ([2]; 4 h after administration): 4.14 ± 0.61 % ID/g
Muscle ([2]; 4 h after administration): 0.61 ± 0.11 % ID/g
Pancreas ([2]; 4 h after administration): 0.82 ± 0.05 % ID/g
Spleen ([2]; 4 h after administration): 8.16 ± 3.89 % ID/g
Stomach (% ID) ([2]; 4 h after administration): 0.29 ± 0.18 % ID
Blood ([2]; 24 h after administration): 2.48 ± 0.07 % ID/g
Brain ([2]; 24 h after administration): 0.08 ± 0.01 % ID/g
Heart ([2]; 24 h after administration): 0.79 ± 0.08 % ID/g
Intestine ([2]; 24 h after administration): 0.68 ± 0.11 % ID/g
Kidney ([2]; 24 h after administration): 101 ± 18.7 % ID/g
LNCaP Tumor ([2]; 24 h after administration): 8.61 ± 1.06 % ID/g
Liver ([2]; 24 h after administration): 1.00 ± 0.15 % ID/g
Lung ([2]; 24 h after administration): 2.26 ± 0.29 % ID/g
Muscle ([2]; 24 h after administration): 0.27 ± 0.11 % ID/g
Pancreas ([2]; 24 h after administration): 0.65 ± 0.05 % ID/g
Spleen ([2]; 24 h after administration): 2.67 ± 0.59 % ID/g
Stomach (% ID) ([2]; 24 h after administration): 0.13 ± 0.06 % ID
Blood ([2]; 48 h after administration): 0.20 ± 0.02 % ID/g
Brain ([2]; 48 h after administration): 0.03 ± 0.00 % ID/g
Heart ([2]; 48 h after administration): 0.14 ± 0.03 % ID/g
Intestine ([2]; 48 h after administration): 0.23 ± 0.05 % ID/g
Kidney ([2]; 48 h after administration): 11.7 ± 3.83 % ID/g
LNCaP Tumor ([2]; 48 h after administration): 4.92 ± 0.70 % ID/g
Liver ([2]; 48 h after administration): 0.58 ± 0.23 % ID/g
Lung ([2]; 48 h after administration): 0.40 ± 0.10 % ID/g
Muscle ([2]; 48 h after administration): 0.05 ± 0.04 % ID/g
Pancreas ([2]; 48 h after administration): 0.25 ± 0.09 % ID/g
Spleen ([2]; 48 h after administration): 0.83 ± 0.20 % ID/g
Stomach (% ID) ([2]; 48 h after administration): 0.06 ± 0.03 % ID
Blood ([2]; 96 h after administration): 0.13 ± 0.12 % ID/g
Brain ([2]; 96 h after administration): 0.03 ± 0.02 % ID/g
Heart ([2]; 96 h after administration): 0.14 ± 0.11 % ID/g
Intestine ([2]; 96 h after administration): 0.17 ± 0.10 % ID/g
Kidney ([2]; 96 h after administration): 9.71 ± 10.8 % ID/g
LNCaP Tumor ([2]; 96 h after administration): 3.35 ± 0.90 % ID/g
Liver ([2]; 96 h after administration): 1.30 ± 1.30 % ID/g
Lung ([2]; 96 h after administration): 0.36 ± 0.24 % ID/g
Muscle ([2]; 96 h after administration): 0.03 ± 0.02 % ID/g
Pancreas ([2]; 96 h after administration): 0.18 ± 0.12 % ID/g
Spleen ([2]; 96 h after administration): 0.47 ± 0.23 % ID/g
Stomach (% ID) ([2]; 96 h after administration): 0.03 ± 0.01 % ID
Blood ([2]; 192 h after administration): 0.02 ± 0.02 % ID/g
Brain ([2]; 192 h after administration): 0.02 ± 0.00 % ID/g
Heart ([2]; 192 h after administration): 0.22 ± 0.10 % ID/g
Intestine ([2]; 192 h after administration): 0.10 ± 0.05 % ID/g
Kidney ([2]; 192 h after administration): 1.83 ± 0.67 % ID/g
LNCaP Tumor ([2]; 192 h after administration): 5.16 ± 0.23 % ID/g
Liver ([2]; 192 h after administration): 0.64 ± 0.24 % ID/g
Lung ([2]; 192 h after administration): 0.29 ± 0.07 % ID/g
Muscle ([2]; 192 h after administration): 0.08 ± 0.00 % ID/g
Pancreas ([2]; 192 h after administration): 0.29 ± 0.11 % ID/g
Spleen ([2]; 192 h after administration): 0.88 ± 0.34 % ID/g
Stomach (% ID) ([2]; 192 h after administration): 0.02 ± 0.01 % ID
SMILES: O=C([O-])CN(CCN(CCc1ccc(NC(=O)[C@H](CCCCNC(=O)CCC(=O)NCCCC[C@H](NC(=O)N[C@@H](CCC(=O)O)C(=O)O)C(=O)O)NC(=O)CCCc2ccc(I)cc2)cc1)CCN(CC(=O)[O-])Cc1cccc(C(=O)[O-])n1)Cc1cccc(C(=O)[O-])n1.[111In+3] [[^111In]In-Neunpa-2]
